Where two headings read alike, the source gives them in different places.
Assays:
[1] = test system: Septoria tritici; assay: In vivo preventive test on Septoria tritici (leaf spot on wheat); details: 500 ppm; wheat plants sprayed 24 hours before contamination; grading 21 to 28 days after contamination vs control plants
How it was run: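 Scipion wheat at 1-leaf stage sprayed with compound, controls receiving acetone/tween/DMSO/water vehicle; 24 h later leaves inoculated with Septoria tritici spores (500 000 spores per ml). Efficacy (%) graded versus control plants 21 to 28 days after contamination.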

[2] = test system: Sphaerotheca fuliginea; assay: In vivo preventive test on Sphaerotheca fuliginea (powdery mildew on cucurbits); details: 500 ppm; gherkin plants sprayed 24 hours before contamination; grading 12 days after contamination vs control plants
How it was run: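 Preventive spray of gherkin plants at Z11 cotyledon stage, grown at 24° C; inoculation 24 hours later with Sphaerotheca fuliginea spores (100 000 spores per ml). Efficacy graded 12 days post-inoculation as % versus solvent-treated control plants.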

[3] = assay type: physicochemical
[4] = test system: Phytophthora infestans; assay type: in vivo; details: 500 ppm; tomato plants sprayed 24 hours before contamination; grading 5 days after contamination vs control plants
[5] = test system: Botrytis cinerea; assay: In vivo preventive test on Botrytis cinerea (grey mould); details: 500 ppm; gherkin plants sprayed 24 hours before contamination; grading 4-5 days after contamination vs control plants
How it was run: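 Gherkin plants ("Vert petit de Paris") sprayed with compound at Z11 cotyledon stage, then inoculated 24 h later with B. cinerea spores (50 000/ml) in PDB/fructose/NH4NO3/KH2PO4 nutrient solution. Incubated at 17 °C, 80% RH; % efficacy versus solvent-treated controls graded 4–5 days after contamination.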

[6] = Table 3, formula (V); method [a]: pH 2.7, 0.1% formic acid in water / acetonitrile gradient
Description: Measurement of log P values was performed according EEC directive 79/831 Annex V.A8 by HPLC (High Performance Liquid Chromatography) on reversed phase columns with the following methods: ^[a]

[7] = method [a]: HPLC/LC-MS on reversed phase at pH 2.7, 0.1% formic acid in water / acetonitrile, gradient 10% to 95% acetonitrile
[8] = HPLC on reversed phase columns, method [a]: pH 2.7, 0.1% formic acid in water / acetonitrile, linear gradient 10% to 95% acetonitrile
[9] = method [a]: HPLC/LC-MS on reversed phase at pH 2.7, 0.1% formic acid in water / acetonitrile, linear gradient 10% to 95% acetonitrile
[10] = HPLC on reversed phase columns, method [a]: pH 2.7, 0.1% formic acid in water and acetonitrile, linear gradient 10% to 95% acetonitrile

SMILES | % of efficacy (protection) [1] [%] | % of efficacy (protection) [2] [%] | % of efficacy (protection) [4] [%] | % of efficacy (protection) [5] [%] | Log P [6] | other results
C#Cc1cnc2ccc(C3=NOC(C)(C(=O)NC(C)COC)C3)cc2c1 (racemic) [compound 365] | 100 | 98 | 79 |  |  | log P [3, 7]: 2.26[a]
CC#Cc1cnc2ccc(C3=NOC(C)(C(=O)NC(C)C)C3)cc2c1 (racemic) [compound 381] | 97 | 94 | 95 |  |  | log P [3, 7]: 2.73[a]
CCn1cc(CNC(=O)C2(OC)CC(c3ccc4ncc(I)cc4c3)=NO2)c(C)n1 (racemic) [compound 437] |  | 100 | 70 |  |  | log P [3, 7]: 2.44[a]
C#Cc1cnc2ccc(C3=NOC(CC)(C(=O)NCc4cn(CCC)nc4C)C3)cc2c1 (racemic) [compound 445] | 94 | 94 | 100 | 93 |  | log P [3, 7]: 2.64[a]
CCCn1cc(CNC(=O)C2(OC)CC(c3ccc4ncc(I)cc4c3)=NO2)c(C)n1 (racemic) [compound 449] | 98 | 100 | 100 | 99 |  | log P [3, 7]: 2.73[a]
CCCn1cc(CNC(=O)C2(C)CC(c3cc(Cl)c4ncc(Br)cc4c3)=NO2)c(C)n1 (racemic) [compound 549] | 97 |  | 96 | 83 |  | log P [3, 8]: 3.06[a]
ON=C(Cl)c1ccc2ncc(Br)cc2c1 [V-10] |  |  |  |  | 2.52[a] | 
ON=Cc1ccc2ncc(Cl)cc2c1 [V-11] |  |  |  |  | 1.78[a] | 
ON=Cc1ccc2ncc(I)cc2c1 [V-13] |  |  |  |  | 2.08[a] | 
ON=C(Cl)c1ccc2ncc(I)cc2c1 [V-14] |  |  |  |  | 2.77[a] | 
C#Cc1cnc2c(C)cc(C=NO)cc2c1 [V-15] |  |  |  |  | 2.21[a] | 
Cc1cc(C=NO)cc2cc(Br)cnc12 [V-16] |  |  |  |  | 2.61[a] | 
ON=Cc1cc(Cl)c2ncc(Br)cc2c1 [V-17] |  |  |  |  | 2.40[a] | 
ON=C(Cl)c1cc(Cl)c2ncc(Br)cc2c1 [V-18] |  |  |  |  | 3.10[a] | 
Cc1cc(C(Cl)=NO)cc2cc(Br)cnc12 [V-19] |  |  |  |  | 3.37[a] | 
ON=Cc1ccc2ncc(Br)c(Cl)c2c1 [V-21] |  |  |  |  | 2.43[a] | 
ON=C(Cl)c1ccc2ncc(Br)c(Cl)c2c1 [V-22] |  |  |  |  | 3.16[a] | 
ON=Cc1cc(F)c2ncc(Br)cc2c1 [V-23] |  |  |  |  | 2.08[a] | 
C#Cc1cnc2ccc(C3=NOC(C)(C(=O)NC(C)C)C3)cc2c1 (stereo not shown) [compound 40] | 100 | 100 | 97 | 100 |  | log P [3, 9]: 2.28^[a]

SMILES | % of efficacy (protection) [1] [%] | % of efficacy (protection) [2] [%] | % of efficacy (protection) [4] [%] | % of efficacy (protection) [5] [%] | Log P [6] | other results
C#Cc1cnc2ccc(C3=NOC(C)(C(=O)NCc4c(C)nn(CC)c4C)C3)cc2c1 (stereo not shown) [compound 87] |  | 89 | 100 | 97 |  | log P [3, 9]: 2.08^[a]
CCn1nc(C)c(CNC(=O)C2(C)CC(c3ccc4ncc(Br)cc4c3)=NO2)c1C (stereo not shown) [compound 88] |  |  | 100 |  |  | log P [3, 9]: 2.32^[a]
C#Cc1cnc2ccc(C3=NOC(C)(C(=O)NCc4cnn(CC)c4)C3)cc2c1 (stereo not shown) [compound 181] |  | 98 | 92 | 92 |  | log P [3, 9]: 2.04^[a]
CCn1cc(CNC(=O)C2(C)CC(c3ccc4ncc(Br)cc4c3)=NO2)cn1 (stereo not shown) [compound 182] |  | 98 | 83 | 99 |  | log P [3, 9]: 2.27^[a]
C#Cc1cnc2ccc(C3=NOC(C)(C(=O)NCc4c(C)nn(C)c4C)C3)cc2c1 (stereo not shown) [compound 183] | 86 |  | 86 |  |  | log P [3, 9]: 1.91^[a]
C#Cc1cnc2ccc(C3=NOC(C)(C(=O)NCc4ccnc(N5CCOCC5)c4)C3)cc2c1 (stereo not shown) [compound 194] |  |  | 94 |  |  | log P [3, 9]: 1.36^[a]
C#Cc1cnc2ccc(C3=NOC(C)(C(=O)NCc4c(C)nn(C(C)C)c4C)C3)cc2c1 (stereo not shown) [compound 196] |  |  | 94 |  |  | log P [3, 9]: 2.32^[a]
CC(C)n1cc(CNC(=O)C2(C)CC(c3ccc4ncc(Br)cc4c3)=NO2)cn1 (stereo not shown) [compound 199] |  | 98 | 92 | 99 |  | log P [3, 9]: 2.5^[a]
CC1(C(=O)NCc2cnn(Cc3ccccc3)c2)CC(c2ccc3ncc(Br)cc3c2)=NO1 (stereo not shown) [compound 201] | 86 |  | 92 |  |  | log P [3, 9]: 2.94^[a]
CON=CC(C)(C)NC(=O)C1(C)CC(c2ccc3ncc(Br)cc3c2)=NO1 (stereo not shown) [compound 298] | 100 |  | 100 | 87 |  | log P [3, 8]: 3.29[a]
CCn1cc(C(C)NC(=O)C2(C)CC(c3ccc4ncc(Br)cc4c3)=NO2)c(C)n1 (stereo not shown) [compound 312] | 100 | 94 | 100 |  |  | log P [3, 8]: 2.52[a]
C#Cc1cnc2ccc(C3=NOC(C)(C(=O)NC(C)C4=NOCC4)C3)cc2c1 (stereo not shown) [compound 338] | 100 | 100 | 92 |  |  | log P [3, 8]: 2.08[a]
C#Cc1cnc2ccc(C3=NOC(C)(C(=O)NC(C)c4cn(CC)nc4C)C3)cc2c1 (stereo not shown) [compound 351] | 100 | 98 | 100 |  |  | log P [3, 8]: 2.28[a]
CCCn1cc(CNC(=O)C2(C)CC(c3ccc4ncc(I)cc4c3)=NO2)c(C)n1 (stereo not shown) [compound 455] |  | 98 | 100 | 98 |  | log P [3, 7]: 2.75[a]
C#Cc1cnc2ccc(C3=NOC(C)(C(=O)NCc4cn(C(C)C)nc4C)C3)cc2c1 (stereo not shown) [compound 461] |  | 98 | 100 | 99 |  | log P [3, 7]: 2.34[a]
C#Cc1cnc2ccc(C3=NOC(C)(C(=O)NC(C)(C)c4nc(C)cs4)C3)cc2c1 (stereo not shown) [compound 516] |  |  | 73 | 100 |  | log P [3, 8]: 2.92[a]
C#Cc1cnc2c(Cl)cc(C3=NOC(C)(C(=O)NCc4cn(CCC)nc4C)C3)cc2c1 (stereo not shown) [compound 551] | 93 |  | 81 | 98 |  | log P [3, 8]: 2.78[a]
C=CC1(C(=O)NCc2cn(CC)nc2C)CC(c2ccc3ncc(I)cc3c2)=NO1 (stereo not shown) [compound 728] |  | 100 | 100 | 97 |  | log P [3, 10]: 2.75[a]
C=CC1(C(=O)NCCCOCC)CC(c2ccc3ncc(Br)cc3c2)=NO1 (stereo not shown) [compound 733] | 92 | 98 | 100 |  |  | log P [3, 10]: 3.06[a]

Source: patent publication US9510598B2, “Nitrogen-containing heterocyclic compounds for plant disease control” (BAYER CROPSCIENCE AG, priority 2012, dated 2016)
